Read-outs that look alike come from different tables or passages of the source.

The source of these data is PMC10587169, “Tuning aminopolycarboxylate chelators for efficient complexation of trivalent actinides” (Scientific Reports, 2023).

Data set [1] in a line: Potentiometric complexometric titration. Format: binding. The note with it: for logβ101 (ML), Nd / logβ111 (MHL), Nd / logK111, Dy / logK111, Eu / logK111, Ho / logK111, La / logK111, Lu / logK111, Nd / logK111, Tb / logβ101 (ML), Dy / logβ101 (ML), Eu / logβ101 (ML), Ho / logβ101 (ML), La / logβ101 (ML), Lu / logβ101 (ML), Tb / logβ111 (MHL), Dy / logβ111 (MHL), Eu / logβ111 (MHL), Ho / logβ111 (MHL), La / logβ111 (MHL), Lu / logβ111 (MHL), Tb: potentiometry, I = 2.0 M (Na+/H+)ClO4, T = 20.0 °C; for logK111, Dy / logK111, Eu / logK111, Ho / logK111, La / logK111, Lu / logK111, Nd / logK111, Tb / logβ101 (ML), Dy / logβ101 (ML), Eu / logβ101 (ML), Ho / logβ101 (ML), La / logβ101 (ML), Lu / logβ101 (ML), Tb / logβ111 (MHL), Dy / logβ111 (MHL), Eu / logβ111 (MHL), Ho / logβ111 (MHL), La / logβ111 (MHL), Lu / logβ111 (MHL), Tb: ±3σ. The procedure: (§1) All potentiometric titrations were run using a Mettler Toledo T90 autotitrator equipped with an Orion Ross Semi-micro glass electrode with the junction stabilization solution changed to 5.0 M NaCl to prevent precipitation with perchlorate media. All titrations were performed under a hydrated nitrogen atmosphere. The forward titration measurements (acidic titrand, basic titrant) of H4octapa in nitrate electrolyte medium were performed as described previously due to the limited solubility of this ligand in a 2 M (Na^+/H^+)ClO4 medium. Acid dissociation constants of H4octapa in perchlorate electrolyte medium were also determined by titrating in reverse (basic titrand, acidic titrant) to alleviate the solubility concerns. Titrations of H4pypa-peg were performed in reduced-volume glass titration cups (10 mL nominal) due to the limited supply of this ligand. All potentiometric titrations were run in triplicate. The choice of using p[H^+] was explained in Heathman et al.[15], and the calibration of the p[H^+] scale utilized Gran analysis through titration of a strong acid with the base used in the potentiometric titrations[29]–[31]. Potentiometric titration data was modeled and analyzed using Hyperquad2013 to determine acid dissociation and metal complexation stability constants[32],[33].
The coordination of La^3+, Nd^3+, Eu^3+, Tb^3+, Dy^3+, Ho^3+, and Lu^3+ with H4octapa and H4pypa-peg was studied. Figures 4A, B show the potentiometric curves collected when Nd^3+ was titrated with H4octapa and H4pypa-peg, respectively. Both p[H^+] curves show the characteristic buffering region due to deprotonation of metal–ligand complexes when titrated with base. The experimental p[H^+] trend is best represented when considering the presence of MHL(aq) and ML^– complexes as generalized by Eqs. (4) and (5). The progressive formation of the metal complexes throughout the titration is illustrated by species distribution curves, also shown in Figs. 4A, B. The complex formation equilibria are described by the conditional stability constants, β101 and β111, listed in Table 3.

A short description of data set [2]: Potentiometric titration, acid dissociation constants. Format: physicochemical. Here is the method: as §1
Changes in hydrogen ion concentration were monitored using a glass electrode for a solution of H4octapa as either NaOH or HClO4 were titrated into the solutions. […] The experimental potentiometric curve collected for a forward titration of H4octapa in (Na^+/H^+)NO3 is presented in Fig. 3A, alongside the distribution curves for the identified HnL species. Following those studies, the acid/base conditions were reversed and octapa^4− was titrated in 2.0 M (Na^+/H^+)ClO4 using HClO4 (SI Figure S7). The potentiometric curves are well respresented by five proton dissociation equilibria. The calculated equilibrium constants correspond with the protonation reactions for two aliphatic amines, two pyridine nitrogens, and one carboxylate group with the protonation sequence described by Eq. (2). The acid dissociation constants (pKa = − log10Ka) for H4octapa are reported in Table 1 alongside previously reported values in the literature.
The experimental potentiometric titration curve and the distribution curves for the associated HnL species for H4pypa-peg are presented in Fig. 3B. […] For comparison, the protonation equilibria of H4edta were also studied in 2.0 M (Na^+/H^+)ClO4. The pKa values for H4edta are listed in Table 2 and collected potentiometric titration curves (forward and reverse) are presented in SI Figure S8. For H4pypa-peg coordination pocket the protonation of H9L^5+, H7L^3+, and H6L^2+ cannot be characterized using a glass electrode. The H6L^2+ species likely represents a protonated carboxylate group, while H5L^+ and H4L may describe the pyridinecarboxylate nitrogens. The equilibrium involving H3L^− likely describes the dissociation of the protonated pyridine nitrogen, while the two most basic species in this ligand (HL^3− and H2L^2−) are likely the bridging amines in the H4pypa-peg backbone. Equation (3) describes the protonation sequence for H4pypa-peg.3 H10-aL^+6-a⇆H9-aL^+5-a+H^+Ka=H^+·H9-aL^+5-a/H10-aL^+6-aa=1…9

Setting [3] is: aqueous 2.0 M (Na+/H+)ClO4 electrolyte solution, I = 2.0 M (Na+/H+)ClO4 at 20.0 °C, read-out: pKa H2L species.
Setting [4] is: aqueous 2.0 M (Na+/H+)ClO4 electrolyte solution, I = 2.0 M (Na+/H+)ClO4 at 20.0 °C, read-out: pKa H3L species.
Setting [5] is: aqueous 2.0 M (Na+/H+)ClO4 electrolyte solution, I = 2.0 M (Na+/H+)ClO4 at 20.0 °C, read-out: pKa H4L species.
Setting [6] is: aqueous 2.0 M (Na+/H+)ClO4 electrolyte solution, I = 2.0 M (Na+/H+)ClO4 at 20.0 °C, read-out: pKa H5L species.
Where [7] appears, read: aqueous 2.0 M (Na+/H+)ClO4 electrolyte solution, I = 2.0 M (Na+/H+)ClO4 at 20.0 °C, read-out: pKa HL species.
The mark [8] stands for this setting: aqueous 2.0 M (Na+/H+)ClO4 electrolyte solution, I = 2.0 M (Na+/H+)ClO4 at 20.0 °C, read-out: pKa H6L species.

Regarding `O=C(O)CN(CCN(CC(=O)O)Cc1cccc(C(=O)O)n1)Cc1cccc(C(=O)O)n1` [H4octapa, 6,6′-((ethane-1,2-diylbis–((carboxymethyl)azanediyl))bis–(methylene))dipicolinic acid], in data set [1], the “logβ101 (ML), Nd” value was 18.19 (1); the “logβ111 (MHL), Nd” value is listed as 19.92 (2) –; the “logK111, Dy” value is 1.28 (2); the “logK111, Eu” value is listed as 1.13 (4). Also, in data set [1], the “logK111, Ho” value is recorded as 0.53 (2); the “logK111, La” value is 1.53 (4); the “logK111, Lu” value is on record as 1.69 (4); the “logK111, Nd” value is on record as 1.73 (2) –. For the same compound, in data set [1], the “logK111, Tb” value is 1.04 (7); the “logβ101 (ML), Dy” value is listed as 18.48 (2); the “logβ101 (ML), Eu” value was 18.49 (2); the “logβ101 (ML), Ho” value is 18.57 (2). In addition, in data set [1], the “logβ101 (ML), La” value is 17.77 (2); the “logβ101 (ML), Lu” value is 17.97 (3); the “logβ101 (ML), Tb” value is reported as 18.55 (2); the “logβ111 (MHL), Dy” value is 19.76 (1). Further, in data set [1], the “logβ111 (MHL), Eu” value is recorded as 19.62 (4); the “logβ111 (MHL), Ho” value is on record as 19.10 (1); the “logβ111 (MHL), La” value is reported as 19.30 (4); the “logβ111 (MHL), Lu” value was 19.66 (4). Moreover, the “logβ111 (MHL), Tb” value in data set [1] was 19.59 (7). In addition, the pKa in data set [2] (setting [3]) stood at 5.57. For the same compound, the pKa in data set [2] (setting [4]) was found to be 3.82. Moreover, in data set [2] (setting [5]), the pKa was 3.18. For the same compound, the pKa in data set [2] (setting [6]) was found to be 1.63. Moreover, the pKa in data set [2] (setting [7]) was 8.41. Also, the pKa in data set [2] (aqueous 2.0 M (Na+/H+)NO3 electrolyte solution, I = 2.0 M (Na+/H+)NO3 at 25.0 °C, read-out: pKa H2L2-) worked out at 5.27. Further, the pKa in data set [2] (aqueous 2.0 M (Na+/H+)NO3 electrolyte solution, I = 2.0 M (Na+/H+)NO3 at 25.0 °C, read-out: pKa H3L-) turned out to be 3.63. The pKa in data set [2] (aqueous 2.0 M (Na+/H+)NO3 electrolyte solution, I = 2.0 M (Na+/H+)NO3 at 25.0 °C, read-out: pKa H4L(aq)) was 3. The pKa in data set [2] (aqueous 2.0 M (Na+/H+)NO3 electrolyte solution, I = 2.0 M (Na+/H+)NO3 at 25.0 °C, read-out: pKa H5L+) worked out at 1.63. For the same compound, the pKa in data set [2] (aqueous 2.0 M (Na+/H+)NO3 electrolyte solution, I = 2.0 M (Na+/H+)NO3 at 25.0 °C, read-out: pKa HL3-) turned out to be 8.16.
Regarding `O=C(O)CN(Cc1cc(-c2cn(CCOCCOCCO)nn2)cc(CN(CC(=O)O)Cc2cccc(C(=O)O)n2)n1)Cc1cccc(C(=O)O)n1` [H4pypa-peg, 6,6'-((((4-(1-(2-(2-(2-hydroxyethoxy)ethoxy)ethyl)-1H-1,2,3-triazol-4-yl)pyridine-2,6-diyl)bis–(methylene))bis–((carboxymethyl)azanediyl))bis–(methylene)) dipicolinic acid], in data set [1], the “logβ101 (ML), Nd” value is listed as 18.20 (2); the “logβ111 (MHL), Nd” value is listed as 20.43 (2); the “logK111, Dy” value is 1.97 (2); the “logK111, Eu” value is listed as 1.96 (1). Also, in data set [1], the “logK111, Ho” value was 1.80 (4); the “logK111, La” value was 2.32 (1); the “logK111, Lu” value was 1.87 (5); the “logK111, Nd” value is on record as 2.22 (2). Besides, in data set [1], the “logK111, Tb” value is on record as 2.02 (2); the “logβ101 (ML), Dy” value is on record as 20.05 (1); the “logβ101 (ML), Eu” value is 18.91 (1); the “logβ101 (ML), Ho” value is recorded as 20.50 (4). In data set [1], the “logβ101 (ML), La” value is 17.86 (1); the “logβ101 (ML), Lu” value is listed as 20.72 (5); the “logβ101 (ML), Tb” value is 19.75 (2); the “logβ111 (MHL), Dy” value is 22.03 (2). In data set [1], the “logβ111 (MHL), Eu” value is reported as 20.87 (1); the “logβ111 (MHL), Ho” value is given as 22.31 (4); the “logβ111 (MHL), La” value is given as 20.18 (1); the “logβ111 (MHL), Lu” value is 22.60 (5). For the same compound, the “logβ111 (MHL), Tb” value in data set [1] is given as 21.77 (2). Moreover, the pKa in data set [2] (aqueous 2.0 M (Na+/H+)ClO4 electrolyte solution, I = 2.0 M (Na+/H+)ClO4 (Table 2), read-out: pKa H2L2-) stood at 6.45. Also, the pKa in data set [2] (aqueous 2.0 M (Na+/H+)ClO4 electrolyte solution, I = 2.0 M (Na+/H+)ClO4 (Table 2), read-out: pKa H3L-) was 3.92. Moreover, in data set [2] (aqueous 2.0 M (Na+/H+)ClO4 electrolyte solution, I = 2.0 M (Na+/H+)ClO4 (Table 2), read-out: pKa H4L(aq)), the pKa worked out at 3.37. For the same compound, the pKa in data set [2] (aqueous 2.0 M (Na+/H+)ClO4 electrolyte solution, I = 2.0 M (Na+/H+)ClO4 (Table 2), read-out: pKa H5L+) came to 2.45. In addition, in data set [2] (aqueous 2.0 M (Na+/H+)ClO4 electrolyte solution, I = 2.0 M (Na+/H+)ClO4 (Table 2), read-out: pKa H6L2+), the pKa turned out to be 1.43. The pKa in data set [2] (aqueous 2.0 M (Na+/H+)ClO4 electrolyte solution, I = 2.0 M (Na+/H+)ClO4 (Table 2), read-out: pKa HL3-) was found to be 7.44.
`O=C(O)CN(CCN(CC(=O)O)CC(=O)O)CCN(CC(=O)O)CC(=O)O` [H5dtpa, diethylenetriamine-N,N,N',N'',N''-pentaacetic acid]: the pKa in data set [2] (setting [3]) was determined as 8.31; in data set [2] (setting [4]), 5.57; in data set [2] (setting [5]), 4.38; in data set [2] (setting [6]), 2.53; in data set [2] (setting [8]), 2.41; in data set [2] (setting [7]), 9.5.
Regarding `O=C(O)CN(CCN(CCN(CC(=O)O)CC(=O)O)CC(=O)O)CCN(CC(=O)O)CC(=O)O` [H6ttha, triethylenetetraamine-N,N,N',N'',N''',N'''-hexaacetic acid], the “logβ121 (MH2L), Nd3+” value in data set [1] (determined using potentiometry, I = 2.0 M (Na+/H+)ClO4 at 20.0 °C) is on record as 27.74(3). Moreover, the “logβ101 (ML), Nd” value in data set [1] is given as 21.78(2). For the same compound, in data set [1], the “logβ111 (MHL), Nd” value is reported as 25.42(2). Moreover, the pKa in data set [2] (setting [3]) stood at 8.67; in data set [2] (setting [4]) it was 6.27; in data set [2] (setting [5]), 4.12; in data set [2] (setting [6]), 2.7; in data set [2] (setting [8]) it was 2.19; in data set [2] (aqueous 2.0 M (Na+/H+)ClO4 electrolyte solution, I = 2.0 M (Na+/H+)ClO4 at 20.0 °C, read-out: pKa H7L species) it was 1.86. In data set [2] (setting [7]), the pKa turned out to be 9.48.

What is called pKa is the pH at which an ionisable group is half protonated.
